Experimental data from patent publication US20260217701A1, “SELECTIVE BET INHIBITORS AND USES THEREOF” (Tay Therapeutics Limited, priority 2022, published 2026).
“And” between values parts separate entries of the source, which are not always exact repeats. Equal entries are not always repeated.

Assay: Dog PK study #3 (Compound A PO once daily 5 days, 5/10/20 mg/kg; PK, body weight, hematology)
Type: in vivo, beagle dogs
Design: Plasma Concentration: unit not given here
Experimental: For the third dog pharmacokinetic study, three solutions of different concentrations of Compound A were prepared in 5% DMSO/15% PEG-400/80% (10% VE-TPGS) as outlined in Table 2E. The Compound A solutions were administered to animals orally (PO) once daily over a five-day period. Body weight was recorded prior to dosing, and detailed clinical observations were made prior to dosing and throughout the study, as needed.
Animals were divided into Day 1 and Day 5 sample collection groups, with animals in the Day 1 collection group having blood samples taken prior to dosing and at 0.25, 0.5, 1, 2, 4, 8, and 24 hours after dosing on day 1. Animals in the Day 5 collection group having blood samples taken prior to dosing and at 0.25, 0.5, 1, 2, 4, 8, and 24 hours after dosing on day 5. Study groups are outlined in Table 3D.
Blood samples (~0.3 mL) were collected on day according to the following schedule (0.25, 0.5, 1, 2, 4, 8, and 24 h) after day 5 administration of Compound A by venipuncture of peripheral veins except for the dosing vein, and EDTA-K2 was used as anticoagulant. Within 30 minutes of collection, the samples were centrifuged at approximately 2000 times g-force for 10 minutes at 4° C. to obtain blood plasma. The plasma samples were immediately divided into two aliquots (~75 μL each), transferred to a cryogenic vial, and stored in a freezer at −75±15° C. prior to analysis.
The concentration of Compound A in the blood plasma was determined through LC-MS as previously described. Briefly, the experiments were conducted on a DMPK-LCMS-14-SMBA Triple Quad 6500 Plus instrument with an ACQUITY UPLC BEH C18 1.7 μm (50×2.1 mm) column. The matrix was male beagle dog plasma potassium (K2) EDTA A gradient of 95% water (0.1% formic acid and 2 mM HCOONH4)/95% acetonitrile (0.1% formic acid and 2 mM HCOONH4) was used as the mobile phase. The sample flow rate was 0.6 mL/min.
The samples were then vortex-mixed for 10 minutes at 800 rpm and centrifuged for 15 minutes at 3220×g at 4° C. 50 μL aliquots of supernatant were transferred to a clean 96-well plate and centrifuged for 5 minutes at 3220×g at 4° C. Samples were then injected into the LC/MS/MS system for quantitative analysis.
The gathered data were used for pharmacokinetic calculations using T1/2, CO, AUClast, AUCinf, MRTinf, Cl, Vss, and Number of Points for Regression as parameters.
The cell composition (hematology) of blood samples was analyzed at day 5. Analyses identified the total number of white blood cells, neutrophils, lymphocytes, monocytes, eosinophils, basophils, and platelets in collected samples.

[1] = Day 1, 5 mg/kg dose PO, individual animals
[2] = Day 1, 10 mg/kg dose PO, individual animals
[3] = Day 1, 20 mg/kg dose PO, individual animals

In the case of `Cn1cc(-c2ccccc2)c(-c2cn(C)c(=O)c3[nH]c(-c4cnn(C(F)(F)F)c4)cc23)cc1=O` [Compound A, 6-methyl-4-(1-methyl-2-oxo-5-phenyl-1,2-dihydropyridin-4-yl)-2-(1-(trifluoromethyl)-1H-pyrazol-4-yl)-1,6-dihydro-7H-pyrrolo[2,3-c]pyridin-7-one], the “Plasma Concentration” value (Day 1, 5 mg/kg dose PO, time 0, individual animals) was “BQL”, the “Plasma Concentration” value (Day 1, 5 mg/kg dose PO, time 0.25, individual animals) was 9.79 and 28.1 and the “Plasma Concentration” value (Day 1, 5 mg/kg dose PO, time 0.25, mean) was 18.9. The “Plasma Concentration” value (Day 1, 5 mg/kg dose PO, time 0.5, individual animals) was 206 and 326, the “Plasma Concentration” value (Day 1, 5 mg/kg dose PO, time 0.5, mean) was 266 and the “Plasma Concentration” value (Day 1, 5 mg/kg dose PO, time 1, individual animals) was 523 and 590. For the same compound, the “Plasma Concentration” value (Day 1, 5 mg/kg dose PO, time 1, mean) was 557, the “Plasma Concentration” value (Day 1, 5 mg/kg dose PO, time 2, individual animals) was 587 and 671 and the “Plasma Concentration” value (Day 1, 5 mg/kg dose PO, time 2, mean) was 629. For the same compound, the “Plasma Concentration” value (Day 1, 5 mg/kg dose PO, time 4, individual animals) was 765 and 686, the “Plasma Concentration” value (Day 1, 5 mg/kg dose PO, time 4, mean) was 726 and the “Plasma Concentration” value (Day 1, 5 mg/kg dose PO, time 8, individual animals) was 785 and 424. For the same compound, the “Plasma Concentration” value (Day 1, 5 mg/kg dose PO, time 8, mean) was 605, the “Plasma Concentration” value (Day 1, 5 mg/kg dose PO, time 24, individual animals) was 166 and 58.7 and the “Plasma Concentration” value (Day 1, 5 mg/kg dose PO, time 24, mean) was 112. For the same compound, the AUC0-last [1] was 7398 ng·h/mL, the AUCExtra [1] was 6.05% and the AUMCExtra [1] was 20.9%. It also gave a Cl_F [1] of 10.6 mL/min/kg, a Cmax [1] of 686 ng/mL and an MRT0-last [1] of 7.83 h. For the same compound, the Tlast [1] was 24.0 h, the Vz_F [1] was 5.16 L/kg and the AUC0-last (Day 1, 5 mg/kg dose PO, mean) was 9495 ng·h/mL. For the same compound, the Tlast (Day 1, 5 mg/kg dose PO, mean) was 24.0 h, the “Plasma Concentration” value (Day 1, 10 mg/kg dose PO, time 0, individual animals) was “BQL” and the “Plasma Concentration” value (Day 1, 10 mg/kg dose PO, time 0.25, individual animals) was 310 and 258. The “Plasma Concentration” value (Day 1, 10 mg/kg dose PO, time 0.25, mean) was 284, the “Plasma Concentration” value (Day 1, 10 mg/kg dose PO, time 0.5, individual animals) was 948 and 954 and the “Plasma Concentration” value (Day 1, 10 mg/kg dose PO, time 0.5, mean) was 951. The “Plasma Concentration” value (Day 1, 10 mg/kg dose PO, time 1, individual animals) was 1330 and 1260, the “Plasma Concentration” value (Day 1, 10 mg/kg dose PO, time 1, mean) was 1295 and the “Plasma Concentration” value (Day 1, 10 mg/kg dose PO, time 2, individual animals) was 1820 and 1450. For the same compound, the “Plasma Concentration” value (Day 1, 10 mg/kg dose PO, time 2, mean) was 1635, the “Plasma Concentration” value (Day 1, 10 mg/kg dose PO, time 4, individual animals) was 2010 and 1380 and the “Plasma Concentration” value (Day 1, 10 mg/kg dose PO, time 4, mean) was 1695. The “Plasma Concentration” value (Day 1, 10 mg/kg dose PO, time 8, individual animals) was 1080 and 860, the “Plasma Concentration” value (Day 1, 10 mg/kg dose PO, time 8, mean) was 970 and the “Plasma Concentration” value (Day 1, 10 mg/kg dose PO, time 24, individual animals) was 138 and 134. For the same compound, the “Plasma Concentration” value (Day 1, 10 mg/kg dose PO, time 24, mean) was 136, the AUC0-last [2] was 15568 ng·h/mL and the AUC(0-inf) [2] was 16719 ng·h/mL. The AUCExtra [2] was 5.08% and 6.88%, the AUMCExtra [2] was 18.2% and 23.5% and the Cl_F [2] was 8.12 mL/min/kg and 9.97 mL/min/kg. The Cmax [2] was 1450 ng/mL, the MRT0-inf [2] was 9.54 h and the MRT0-last [2] was 7.84 h. The Tlast [2] was 24.0 h, the T½ [2] was 5.95 h and the Vz_F [2] was 3.68 L/kg and 5.14 L/kg. The AUC0-last (Day 1, 10 mg/kg dose PO, mean) was 17527 ng·h/mL, the AUCExtra (Day 1, 10 mg/kg dose PO, mean) was 5.98% and the AUMCExtra (Day 1, 10 mg/kg dose PO, mean) was 20.9%. The Cl_F (Day 1, 10 mg/kg dose PO, mean) was 9.04 mL/min/kg, the Tlast (Day 1, 10 mg/kg dose PO, mean) was 24.0 h and the Vz_F (Day 1, 10 mg/kg dose PO, mean) was 4.41 L/kg. The “Plasma Concentration” value (Day 1, 20 mg/kg dose PO, time 0, individual animals) was “BQL”, the “Plasma Concentration” value (Day 1, 20 mg/kg dose PO, time 0.25, individual animals) was 413 and 438 and the “Plasma Concentration” value (Day 1, 20 mg/kg dose PO, time 0.25, mean) was 426. For the same compound, the “Plasma Concentration” value (Day 1, 20 mg/kg dose PO, time 0.5, individual animals) was 2090 and 1440, the “Plasma Concentration” value (Day 1, 20 mg/kg dose PO, time 0.5, mean) was 1765 and the “Plasma Concentration” value (Day 1, 20 mg/kg dose PO, time 1, individual animals) was 3430 and 3440. The “Plasma Concentration” value (Day 1, 20 mg/kg dose PO, time 1, mean) was 3435, the “Plasma Concentration” value (Day 1, 20 mg/kg dose PO, time 2, individual animals) was 3620 and 5590 and the “Plasma Concentration” value (Day 1, 20 mg/kg dose PO, time 2, mean) was 4605. For the same compound, the “Plasma Concentration” value (Day 1, 20 mg/kg dose PO, time 4, individual animals) was 4330 and 6000, the “Plasma Concentration” value (Day 1, 20 mg/kg dose PO, time 4, mean) was 5165 and the “Plasma Concentration” value (Day 1, 20 mg/kg dose PO, time 8, individual animals) was 3170 and 4570. The “Plasma Concentration” value (Day 1, 20 mg/kg dose PO, time 8, mean) was 3870, the “Plasma Concentration” value (Day 1, 20 mg/kg dose PO, time 24, individual animals) was 394 and 1810 and the “Plasma Concentration” value (Day 1, 20 mg/kg dose PO, time 24, mean) was 1102. The AUC0-last [3] was 86304 ng·h/mL, the AUC(0-inf) [3] was 52608 ng·h/mL and 116806 ng·h/mL and the AUCExtra [3] was 6.10% and 26.1%. The AUMCExtra [3] was 20.3% and 58.8% and the Cl_F [3] was 6.34 mL/min/kg and 2.85 mL/min/kg.
